Assay results taken from ChEMBL document CHEMBL1153545 (Antimicrob Agents Chemother, 2007).
In brackets after ≈: the same amount, converted by molar mass. Blank lines part the entries; values can stand above or below the compound they belong to. Activity calls are given as the source filed them. The rule behind the calls is not given here.

How the values were obtained:
[1] = test system: Streptococcus pneumoniae; assay: Inhibition of efflux pump in Streptococcus pneumoniae Spn-058 with harboring Ser79Tyr mutation in parC gene assessed as decrease in ciprofloxacin MIC
[2] = test system: Streptococcus pneumoniae; assay: Inhibition of efflux pump in Streptococcus pneumoniae Spn-058 with harboring mutation in parC gene assessed as decrease in levofloxacin MIC
[3] = test system: Streptococcus pneumoniae; assay: Inhibition of efflux pump in Streptococcus pneumoniae Spn-058 harboring mutation in parC and […] gene assessed as decrease in ciprofloxacin MIC
[4] = test system: Streptococcus pneumoniae; assay: Antimicrobial activity against Streptococcus pneumoniae Spn-058 assessed as bacterial load; format: functional, organism-based
[5] = test system: Streptococcus pneumoniae; assay: Antimicrobial activity against Streptococcus pneumoniae Spn-RC2 infected in one-compartment pharmacodynamic system assessed as decrease in bacterial density administered at simulated at 500 mg QD dosage regimen for 10 days measured after 24 hrs by quantitative culture assay; format: functional, organism-based
[6] = test system: Streptococcus pneumoniae; assay: Inhibition of efflux pump in Streptococcus pneumoniae Spn-058 assessed as ethidium bromide uptake at 20 ug/ml
[7] = test system: Streptococcus pneumoniae; assay: Inhibition of efflux pump in Streptococcus pneumoniae Spn-RC2 assessed as ethidium bromide uptake at 20 ug/ml
[8] = test system: Streptococcus pneumoniae; assay: Induction of efflux pump expression in Streptococcus pneumoniae Spn-058 harboring mutation in gyrA gene at 20 ug/ml
[9] = test system: Streptococcus pneumoniae; assay: Inhibition of efflux pump in Streptococcus pneumoniae Spn-RC2 assessed as reduction in ciprofloxacin MIC at 20 ug/ml by broth microdilution method
[10] = test system: Streptococcus pneumoniae; assay: Inhibition of efflux pump in Streptococcus pneumoniae Spn-RC2 assessed as reduction in levofloxacin at 20 ug/ml MIC by broth microdilution method
[11] = test system: Streptococcus pneumoniae; assay: Inhibition of efflux pump in Streptococcus pneumoniae Spn-RC2 assessed as reduction in ciprofloxacin MIC by agar microdilution method
[12] = test system: Streptococcus pneumoniae; assay: Inhibition of efflux pump in Streptococcus pneumoniae Spn-RC2 assessed as reduction in levofloxacin MIC by agar microdilution method
[13] = test system: Streptococcus pneumoniae; assay: Induction of efflux pump expression in Streptococcus pneumoniae Spn-058 after 5 hrs by ethidium bromide uptake assay
[14] = test system: Streptococcus pneumoniae; assay: Inhibition of efflux pump in Streptococcus pneumoniae Spn-058 assessed as change in levofloxacin MIC at 20 ug/ml by broth macrodilution method
[15] = test system: Streptococcus pneumoniae; assay: Inhibition of efflux pump in Streptococcus pneumoniae Spn-058 assessed as change in ciprofloxacin MIC at 20 ug/ml by broth macrodilution method
[16] = test system: Streptococcus pneumoniae; assay: Inhibition of efflux pump in Streptococcus pneumoniae Spn-058 assessed as change in levofloxacin MIC by agar dilution method
[17] = test system: Streptococcus pneumoniae; assay: Inhibition of efflux pump in Streptococcus pneumoniae Spn-058 assessed as change in ciprofloxacin MIC by agar dilution method
[18] = test system: Streptococcus pneumoniae; assay: Inhibition of efflux pump in Streptococcus pneumoniae Spn-RC2 assessed as change in levofloxacin MIC by agar dilution method
[19] = test system: Streptococcus pneumoniae; assay: Inhibition of efflux pump in Streptococcus pneumoniae Spn-RC2 assessed as change in ciprofloxacin MIC by agar dilution method
[20] = test system: Streptococcus pneumoniae; assay: Inhibition of efflux pump in Streptococcus pneumoniae Spn-058 infected in one-compartment pharmacodynamic system assessed as repid killing administered levofloxacin at simulated oral dose regimen of 500 mg in human measured on day 6
[21] = test system: Streptococcus pneumoniae; assay: Inhibition of efflux pump in Streptococcus pneumoniae Spn-058 infected in one-compartment pharmacodynamic system assessed as repid killing administered levofloxacin at simulated oral dose regimen of 750 mg in human every 12 hrs measured on day 6
[22] = test system: Streptococcus pneumoniae; assay: Inhibition of efflux pump in Streptococcus pneumoniae Spn-058 infected in one-compartment pharmacodynamic system assessed as repid killing administered levofloxacin at simulated oral dose regimen of 750 mg in human every 24 hrs measured on day 10
[23] = test system: Streptococcus pneumoniae; assay: Antimicrobial activity against Streptococcus pneumoniae Spn-058 infected in one-compartment pharmacodynamic system assessed as prevention of regrowth administered ciprofloxacin at simulated oral dose regimen of 750 mg in human every 12 hrs measured on day 10; format: functional, organism-based
[24] = test system: Streptococcus pneumoniae; assay: Antimicrobial activity against Streptococcus pneumoniae Spn-RC2 infected in one-compartment pharmacodynamic system assessed as regrowth of bacteria administered at simulated at 750 mg dosage regimen every 12 hrs measured on day 8; format: functional, organism-based
[25] = test system: Streptococcus pneumoniae; assay: Inhibition of ciprofloxacin-induced efflux pump expression in Streptococcus pneumoniae Spn-058 after 5 hrs by ethidium bromide uptake assay
[26] = test system: Streptococcus pneumoniae; assay: Induction of efflux pump expression in Streptococcus pneumoniae Spn-RC2 after 5 hrs by ethidium bromide uptake assay
[27] = test system: Streptococcus pneumoniae; assay: Inhibition of efflux pump in ciprofloxacin pretreated Streptococcus pneumoniae Spn-RC2 at 20 ug/ml by ethidium bromide uptake assay
[28] = test system: Streptococcus pneumoniae; assay: Antimicrobial activity against Streptococcus pneumoniae Spn-058 at 5.5 to 8 log10 CFU/ml bacterial density measured within 24 hrs; format: functional, organism-based
[29] = test system: Streptococcus pneumoniae; assay: Inhibition of efflux pump in Streptococcus pneumoniae Spn-058 assessed as reduction in ciprofloxacin MIC by broth microdilution method
[30] = test system: Streptococcus pneumoniae; assay: Inhibition of efflux pump in Streptococcus pneumoniae Spn-058 assessed as reduction in levofloxacin MIC by broth microdilution method
[31] = test system: Streptococcus pneumoniae; assay: Inhibition of efflux pump in Streptococcus pneumoniae Spn-058 assessed as reduction in ciprofloxacin MIC by agar dilution method
[32] = test system: Streptococcus pneumoniae; assay: Inhibition of efflux pump in Streptococcus pneumoniae Spn-058 assessed as reduction in levofloxacin MIC by agar dilution method
[33] = test system: Streptococcus pneumoniae; assay: Antimicrobial activity against Streptococcus pneumoniae Spn-058 infected in one-compartment pharmacodynamic system assessed as decrease in bacterial population administered at simulated at 750 mg dosage regimen every 12 hrs for 10 days by quantitative culture assay; format: functional, organism-based
[34] = test system: Streptococcus pneumoniae; assay: Antimicrobial activity against Streptococcus pneumoniae Spn-058 infected in one-compartment pharmacodynamic system assessed as reduction in bacterial density administered at simulated at 500 mg QD dosage regimen measured on day 1; format: functional, organism-based
[35] = test system: Streptococcus pneumoniae; assay: Antimicrobial activity against Streptococcus pneumoniae Spn-058 infected in one-compartment pharmacodynamic system assessed as regrowth of bacteria administered at simulated at 500 mg QD dosage regimen measured on day 6; format: functional, organism-based
[36] = test system: Streptococcus pneumoniae; assay: Antimicrobial activity against Streptococcus pneumoniae Spn-RC2 infected in one-compartment pharmacodynamic system assessed as regrowth of bacteria administered at simulated at 750 mg dosage regimen every 12 hrs measured on day 3; format: functional, organism-based
[37] = Stability assessed as degradation half life; format: physicochemical
[38] = test system: Streptococcus pneumoniae; assay: Antimicrobial activity against Streptococcus pneumoniae Spn-058 by broth macrodilution technique in presence of 5% lysed horse blood; format: functional
[39] = Free AUC (0 to 24 hrs) in one-compartment pharmacodynamic system administered at simulated oral dose regimen of 500 mg in human for 10 days; format: ADME
[40] = Half life in one-compartment pharmacodynamic system administered at simulated oral dose regimen of 500 mg in human for 10 days; format: ADME, organism-based
[41] = test system: Streptococcus pneumoniae; assay: Antimicrobial activity against Streptococcus pneumoniae Spn-RC2 infected in one-compartment pharmacodynamic system assessed as decrease in bacterial population administered at simulated oral dose regimen of 500 mg in human for 10 days by quantitative culture assay; format: functional, organism-based
[42] = test system: Streptococcus pneumoniae; assay: Antimicrobial activity against Streptococcus pneumoniae Spn-058 infected in one-compartment pharmacodynamic system assessed as reduction in bacterial density administered at simulated oral dose regimen of 750 mg in human every 12 hrs measured on day 1; format: functional, organism-based
[43] = test system: Streptococcus pneumoniae; assay: Antimicrobial activity against Streptococcus pneumoniae Spn-058 infected in one-compartment pharmacodynamic system assessed as regrowth of bacteria administered at simulated oral dose regimen of 750 mg in human every 12 hrs measured on day 2; format: functional, organism-based
[44] = test system: Streptococcus pneumoniae; assay: Antimicrobial activity against Streptococcus pneumoniae Spn-RC2 by broth macrodilution technique

SMILES: COC(=O)[C@H]1[C@H]2C[C@@H]3c4[nH]c5cc(OC)ccc5c4CCN3C[C@H]2C[C@@H](OC(=O)c2cc(OC)c(OC)c(OC)c2)[C@@H]1OC
Activity [1]: Active
Activity [2]: Active
Activity [3]: Active
Activity [4]: Active
Activity [5]: inactive
Activity [6]: Active
Activity [7]: Active
Activity [8]: Active
Activity [9]: Active
Activity [10]: Active
Activity [11]: Active
Activity [12]: Active
Activity [13]: Active
Activity [14]: inactive
Activity [15]: inactive
Activity [16]: Active
Activity [17]: Active
Activity [18]: Active
Activity [19]: Active
Activity [20]: Active
Activity [21]: Active
Activity [22]: Active
Activity [23]: Active
Activity [24]: inactive
Activity [25]: Active
Activity [26]: Active
Activity [27]: Active
Activity [28]: Active
Activity [29]: Active
Activity [30]: Active
Activity [31]: Active
Activity [32]: Active

half-life [37]: 20 h
fAUC [39]: 36000 ng·h/mL
half-life [40]: 7 h
SMILES: C[C@H]1COc2c(N3CCN(C)CC3)c(F)cc3c(=O)c(C(=O)O)cn1c23.C[C@H]1COc2c(N3CCN(C)CC3)c(F)cc3c(=O)c(C(=O)O)cn1c23.O [LEVOFLOXACIN]
Activity [33]: Active
Activity [34]: Active
Activity [35]: inactive
Activity [36]: Active
MBC [38]: 1 µg/mL
Activity [41]: Active

SMILES: O=C(O)c1cn(C2CC2)c2cc(N3CCNCC3)c(F)cc2c1=O [CIPROFLOXACIN]
Activity [42]: Active
Activity [43]: inactive
Activity [36]: Active
Activity [23]: Active
MBC [38]: 1 µg/mL
MIC [38]: 1 µg/mL
MIC [44]: 2 µg/mL (≈ 6.04 µM)
